Target: T1, mTOR (Homo sapiens, UniProt P42345)
T1 construct: FLAG; made in house
Assay: In Vitro mTOR Kinase Assay (Echo), Test (a)(ii)
Format: biochemical
Settings: table of enzyme assay Test (a)(ii); read-out: Test (a)(ii) IC50
Summary of the method: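 FLAG-tagged human mTOR truncation (residues 1362-2549) expressed in HEK293 cells and FLAG-purified. Compounds dispensed acoustically, reaction 2 h at room temperature, stopped with EDTA. Phosphorylation of biotinylated peptide detected by AlphaScreen with anti-p70 S6K (T389) antibody overnight; IC50 reported.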

T1 sequence (P42345 1362-2549): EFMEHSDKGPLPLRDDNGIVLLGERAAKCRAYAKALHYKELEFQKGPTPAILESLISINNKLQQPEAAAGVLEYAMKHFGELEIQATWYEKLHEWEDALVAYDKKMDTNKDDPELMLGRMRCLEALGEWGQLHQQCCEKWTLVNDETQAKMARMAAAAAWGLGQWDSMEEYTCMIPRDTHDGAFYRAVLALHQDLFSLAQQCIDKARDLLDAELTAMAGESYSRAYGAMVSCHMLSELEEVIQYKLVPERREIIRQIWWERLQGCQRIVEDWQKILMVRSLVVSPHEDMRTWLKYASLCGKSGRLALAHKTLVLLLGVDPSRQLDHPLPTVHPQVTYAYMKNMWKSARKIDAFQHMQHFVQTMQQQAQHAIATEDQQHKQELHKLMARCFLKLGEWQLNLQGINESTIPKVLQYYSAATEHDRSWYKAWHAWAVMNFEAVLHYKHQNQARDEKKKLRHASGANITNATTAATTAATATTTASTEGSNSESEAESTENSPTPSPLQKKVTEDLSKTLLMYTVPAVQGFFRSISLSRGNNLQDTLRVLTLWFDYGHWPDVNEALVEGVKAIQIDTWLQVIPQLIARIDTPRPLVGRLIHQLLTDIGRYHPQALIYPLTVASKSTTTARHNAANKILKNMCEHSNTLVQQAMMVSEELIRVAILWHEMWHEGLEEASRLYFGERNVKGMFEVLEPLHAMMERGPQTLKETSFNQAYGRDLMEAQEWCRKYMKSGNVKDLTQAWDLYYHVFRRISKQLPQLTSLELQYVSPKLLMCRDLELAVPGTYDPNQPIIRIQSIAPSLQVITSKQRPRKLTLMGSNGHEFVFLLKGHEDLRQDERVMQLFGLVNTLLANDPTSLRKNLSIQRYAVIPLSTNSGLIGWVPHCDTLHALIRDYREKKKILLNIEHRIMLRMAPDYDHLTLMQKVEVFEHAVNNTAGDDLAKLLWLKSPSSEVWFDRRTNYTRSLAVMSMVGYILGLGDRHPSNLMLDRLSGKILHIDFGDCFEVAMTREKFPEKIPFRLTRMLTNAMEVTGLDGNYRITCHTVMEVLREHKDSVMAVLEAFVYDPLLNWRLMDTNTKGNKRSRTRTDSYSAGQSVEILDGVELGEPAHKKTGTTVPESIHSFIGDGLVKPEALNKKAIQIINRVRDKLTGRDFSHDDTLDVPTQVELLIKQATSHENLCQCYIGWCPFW

IC50 [nM] | Compound
0.654 | CCNC(=O)Nc1ccc(-c2nc(N3CCOC[C@@H]3C)cc(C3(S(=O)(=O)C(C)(C)C)CC3)n2)cc1 [Example 18e, 1-[4-[4-(1-tert-butylsulfonylcyclopropyl)-6-[(3S)-3-methylmorpholin-4-yl]pyrimidin-2-yl]phenyl]-3-ethylurea]
120 | C[C@H]1COCCN1c1cc(C2(S(=O)(=O)C(C)(C)C)CC2)nc(-c2ccc(NC(=O)NCCN(C)C)cc2)n1 [Example 18f, 1-[4-[4-(1-tert-butylsulfonylcyclopropyl)-6-[(3S)-3-methylmorpholin-4-yl]pyrimidin-2-yl]phenyl]-3-(2-dimethylaminoethyl)urea]
1.23 | C[C@H]1COCCN1c1cc(C2(S(=O)(=O)C(C)(C)C)CC2)nc(-c2ccc(NC(=O)NCCO)cc2)n1 [Example 18g, 1-[4-[4-(1-tert-butylsulfonylcyclopropyl)-6-[(3S)-3-methylmorpholin-4-yl]pyrimidin-2-yl]phenyl]-3-(2-hydroxyethyl)urea]
6.64 | CCCNC(=O)Nc1ccc(-c2nc(N3CCOC[C@@H]3C)cc(C3(S(=O)(=O)C(C)(C)C)CC3)n2)cc1 [Example 18h, 1-[4-[4-(1-tert-butylsulfonylcyclopropyl)-6-[(3S)-3-methylmorpholin-4-yl]pyrimidin-2-yl]phenyl]-3-propylurea]
5.55 | CNC(=O)Nc1ccc(-c2nc(N3CCOC[C@@H]3C)cc(C3(S(=O)(=O)C(C)(C)C)CC3)n2)cc1 [Example 18i, 1-[4-[4-(1-tert-butylsulfonylcyclopropyl)-6-[(3S)-3-methylmorpholin-4-yl]pyrimidin-2-yl]phenyl]-3-methylurea]
30.3 | C[C@H]1COCCN1c1cc(C2(S(=O)(=O)C(C)(C)C)CC2)nc(-c2ccc(NC(=O)Nc3ccc(C(F)(F)F)cc3)cc2)n1 [Example 18j, 1-[4-[4-(1-tert-butylsulfonylcyclopropyl)-6-[(3S)-3-methylmorpholin-4-yl]pyrimidin-2-yl]phenyl]-3-[4-(trifluoromethyl)phenyl]urea]
11.3 | C[C@H]1COCCN1c1cc(C2(S(=O)(=O)C(C)(C)C)CC2)nc(-c2ccc(NC(=O)NC(C)(C)CO)cc2)n1 [Example 18k, 1-[4-[4-(1-tert-butylsulfonylcyclopropyl)-6-[(3S)-3-methylmorpholin-4-yl]pyrimidin-2-yl]phenyl]-3-(1-hydroxy-2-methylpropan-2-yl)urea]
10.2 | C[C@H]1COCCN1c1cc(C2(S(=O)(=O)C(C)(C)C)CC2)nc(-c2ccc(NC(=O)NCCCO)cc2)n1 [Example 18l, 1-[4-[4-(1-tert-butylsulfonylcyclopropyl)-6-[(3S)-3-methylmorpholin-4-yl]pyrimidin-2-yl]phenyl]-3-(3-hydroxypropyl)urea]
3.15 | C[C@H]1COCCN1c1cc(C2(S(=O)(=O)C(C)(C)C)CC2)nc(-c2ccc(NC(=O)Nc3cnn(C)c3)cc2)n1 [Example 18m, 1-[4-[4-(1-tert-butylsulfonylcyclopropyl)-6-[(3S)-3-methylmorpholin-4-yl]pyrimidin-2-yl]phenyl]-3-(1-methylpyrazol-4-yl)urea]
1.31 | C[C@H]1COCCN1c1cc(C2(S(=O)(=O)c3cc(F)cc(F)c3)CC2)nc(-c2ccc(NC(=O)NC3CC3)cc2)n1 [Example 19, 3-Cyclopropyl-1-[4-[4-[1-(3,5-difluorophenyl)sulfonylcyclopropyl]-6-[(3S)-3-methylmorpholin-4-yl]pyrimidin-2-yl]phenyl]urea]
4.25 | C[C@H]1COCCN1c1cc(C2(S(=O)(=O)c3cc(F)cc(F)c3)CC2)nc(-c2ccc(NC(=O)NC3CCC3)cc2)n1 [Example 19a, 3-cyclobutyl-1-[4-[4-[1-(3,5-difluorophenyl)sulfonylcyclopro-pyl]-6-[(3S)-3-methylmorpholin-4-yl]pyrimidin-2-yl]phenyl]urea]
1.19 | C[C@H]1COCCN1c1cc(C2(S(=O)(=O)c3cc(F)cc(F)c3)CC2)nc(-c2ccc(NC(=O)Nc3ccccn3)cc2)n1 [Example 19b, 1-[4-[4-[1-(3,5-difluorophenyl)sulfonylcyclopro-pyl]-6-[(3S)-3-methylmorpholin-4-yl]pyrimidin-2-yl]phenyl]-3-pyridin-2-ylurea]
21.4 | CC(C)CNC(=O)Nc1ccc(-c2nc(N3CCOC[C@@H]3C)cc(C3(S(=O)(=O)c4cc(F)cc(F)c4)CC3)n2)cc1 [Example 19c, 1-[4-[4-[1-(3,5-difluorophenyl)sulfonylcyclopro-pyl]-6-[(3S)-3-methylmorpholin-4-yl]pyrimidin-2-yl]phenyl]-3-(2-methylpropyl)urea]
3.18 | CC(C)NC(=O)Nc1ccc(-c2nc(N3CCOC[C@@H]3C)cc(C3(S(=O)(=O)c4cc(F)cc(F)c4)CC3)n2)cc1 [Example 19d, 1-[4-[4-[1-(3,5-difluorophenyl)sulfonylcyclopro-pyl]-6-[(3S)-3-methylmorpholin-4-yl]pyrimidin-2-yl]phenyl]-3-propan-2-ylurea]
1.35 | CCNC(=O)Nc1ccc(-c2nc(N3CCOC[C@@H]3C)cc(C3(S(=O)(=O)c4cc(F)cc(F)c4)CC3)n2)cc1 [Example 19e, 1-[4-[4-[1-(3,5-difluorophenyl)sulfonylcyclopro-pyl]-6-[(3S)-3-methylmorpholin-4-yl]pyrimidin-2-yl]phenyl]-3-ethylurea]
80.4 | C[C@H]1COCCN1c1cc(C2(S(=O)(=O)c3cc(F)cc(F)c3)CC2)nc(-c2ccc(NC(=O)NCCN(C)C)cc2)n1 [Example 19f, 1-[4-[4-[1-(3,5-difluorophenyl)sulfonylcyclopro-pyl]-6-[(3S)-3-methylmorpholin-4-yl]pyrimidin-2-yl]phenyl]-3-(2-dimethylaminoethyl)urea]
0.274 | C[C@H]1COCCN1c1cc(C2(S(=O)(=O)c3cc(F)cc(F)c3)CC2)nc(-c2ccc(NC(=O)NCCO)cc2)n1 [Example 19g, 1-[4-[4-[1-(3,5-difluorophenyl)sulfonylcyclopro-pyl]-6-[(3S)-3-methylmorpholin-4-yl]pyrimidin-2-yl]phenyl]-3-(2-hydroxyethyl)urea]
2.46 | CCCNC(=O)Nc1ccc(-c2nc(N3CCOC[C@@H]3C)cc(C3(S(=O)(=O)c4cc(F)cc(F)c4)CC3)n2)cc1 [Example 19h, 1-[4-[4-[1-(3,5-difluorophenyl)sulfonylcyclopro-pyl]-6-[(3S)-3-methylmorpholin-4-yl]pyrimidin-2-yl]phenyl]-3-propylurea]
1.52 | CNC(=O)Nc1ccc(-c2nc(N3CCOC[C@@H]3C)cc(C3(S(=O)(=O)c4cc(F)cc(F)c4)CC3)n2)cc1 [Example 19i, 1-[4-[4-[1-(3,5-difluorophenyl)sulfonylcyclopro-pyl]-6-[(3S)-3-methylmorpholin-4-yl]pyrimidin-2-yl]phenyl]-3-methylurea]
19.9 | C[C@H]1COCCN1c1cc(C2(S(=O)(=O)c3cc(F)cc(F)c3)CC2)nc(-c2ccc(NC(=O)Nc3ccc(C(F)(F)F)cc3)cc2)n1 [Example 19j, 1-[4-[4-[1-(3,5-difluorophenyl)sulfonylcyclopro-pyl]-6-[(3S)-3-methylmorpholin-4-yl]pyrimidin-2-yl]phenyl]-3-[4-(trifluoromethyl)phenyl]urea]
4.15 | C[C@H]1COCCN1c1cc(C2(S(=O)(=O)c3cc(F)cc(F)c3)CC2)nc(-c2ccc(NC(=O)NC(C)(C)CO)cc2)n1 [Example 19k, 1-[4-[4-[1-(3,5-difluorophenyl)sulfonylcyclopro-pyl]-6-[(3S)-3-methylmorpholin-4-yl]pyrimidin-2-yl]phenyl]-3-(1-hydroxy-2-methylpropan-2-yl)urea]
